Literature values as cited in patent US20250114373A1, “[…] INSERT COMPRISING AN ANTIMICROBIAL AGENT” (OCULAR THERAPEUTIX, INC., priority 2022, published 2025).

What was measured:
Details in all cases: values from Proksch, 2009
[1] = tested on: S. epidermidis
[2] = tested on: H. influenzae
[3] = tested on: S. pneumoniae
[4] = tested on: S. aureus

In the case of `N[C@@H]1CCCCN(c2c(F)cc3c(=O)c(C(=O)O)cn(C4CC4)c3c2Cl)C1` [Besifloxacin, (R)-7-(3-aminohexahydro-1H-azepin-1-yl)-8-chloro-1-cyclopropyl-6-fluoro-1,4-dihydro-4-oxo-3-quinolinecarboxylic acid], the MIC90 [1] is listed as “(MIC90 of 0.5 μg/mL”, the MIC90 [2] is listed as “(MIC90 of 0.06 μg/mL” and the MIC90 [3] is listed as “(MIC90 of 0.125 μg/mL”. The MIC90 [4] was “(MIC90 of 0.25 μg/mL”.
